{"source": "patent US8940785B2", "about": "“Association between 4-{3-[cis-hexahydrocyclopenta[c]pyrrol-2(1H)-yl]propoxy}benzamide and an acetylcholinesterase inhibitor, and pharmaceutical compositions containing it” (priority 2011, dated 2015)", "key": {"[1]": {"test_system": "middle-aged (14-15 months old) C57B16 mouse", "test": "contextual serial discrimination test (model of episodic memory)", "format": "in vivo", "settings": "chronic treatment for 9 days; for power of contextual memory (correct responses−interfering responses): carrier −28%", "from_the_text": "The effects of 4-{3-[cis-hexahydrocyclopenta[c]pyrrol-2(1H)-yl]propoxy}benzamide and donepezil (both in the form of a hydrochloride), administered on their own or in combination, were studied using a contextual serial discrimination test in the middle-aged (14-15 months old) C57B16 mouse (n=12 per group) (Célérier et al., Learn Mem., 2004, 11(2), 196-204; Tronche et al., Behav. Brain Res., 2010, 215(2): 255-60). […] This model is relevant for evaluating the effects of products in Alzheimer's disease because patients suffering from that form of dementia also have disturbances of contextual episodic memory, this being the case from a very early stage (Gold and Budson, Expert Rev Neurother., 2008, 8(12): 1879-1891).\nThe mice, placed in a box with raised edges, learn two types of consecutive spatial discrimination (D1: white floor, then D2: black floor) on a floor with four holes, in which just one of the holes is baited, the arrangement being opposite in D1 and in D2 (see FIG. 1). Each discrimination is performed on a specific floor (black or white), which constitutes the internal context specific to each discrimination. 24 hours after the learning step, the mice are returned to the white contextual floor, and the following are measured: • the percentage of correct responses (i.e. % of lowering the head into the hole that was baited during the learning exercise on the white floor), • the percentage of interfering responses (i.e. % of lowering the head into the hole that was baited during the learning exercise on the black floor, the last context presented to the mice), • and the percentage of errors (i.e. % of lowering the head into the two holes that were not baited during learning, whether on the white floor or on the black floor (see FIG. 1).\nThe effects of 4-{3-[cis-hexahydrocyclopenta[c]pyrrol-2(1H)-yl]propoxy}benzamide and rivastigmine (used in the form of a hydrogen tartrate), administered on their own or in combination, were studied using the contextual serial discrimination test in the middle-aged C57B16 mouse described in the Example above.\nThe effects of 4-{3-[cis-hexahydrocyclopenta[c]pyrrol-2(1H)-yl]propoxy}benzamide and galantamine (used in the form of a hydrobromide), administered on their own or in combination, were also studied using the contextual serial discrimination test in the middle-aged C57B16 mouse."}, "[2]": {"test_system": "C57B16 mouse", "settings": "administered on its own", "description": "The effects, in terms of safety, of 4-{3-[cis-hexahydrocyclopenta[c]pyrrol-2(1H)-yl]propoxy}-benzamide and donepezil (both in the form of a hydrochloride), administered on their own or in association, were studied using Irwin's primary observation test in the C57B16 mouse (n=4 individuals per group).\nBehavioural changes, physiological and neurotoxic symptoms, rectal temperature and pupil diameter were recorded using a standardised observation grid derived from that of Irwin."}}, "note": "Where a name gives a salt, the structure may show the parent alone. Read-outs that look alike come from different tables or passages of the source.", "data": [{"smiles": "COc1cc2c(cc1OC)C(=O)C(CC1CCN(Cc3ccccc3)CC1)C2", "note": "(stereo not drawn) [donepezil hydrochloride, donepezil]", "values": [{"measurement": "percentage of correct responses compared to the carrier", "setting": "[1]; Example A, FIG. 2, donepezil hydrochloride 0.1 mg/kg of base per os, tested 24 hours after learning", "result": "no significant improvement"}, {"measurement": "observable changes in Irwin's test", "setting": "[2]; donepezil 1 mg/kg of base per os (strongest dose)", "result": "reduces reactivity to touch and causes slight sedation"}, {"measurement": "observable changes in Irwin's test", "setting": "[2]; donepezil 0.1 and 0.3 mg/kg of base per os", "result": "no observable changes"}]}, {"smiles": "NC(=O)c1ccc(OCCCN2C[C@H]3CCC[C@H]3C2)cc1", "note": "[4-{3-[cis-hexahydrocyclopenta[c]pyrrol-2(1H)-yl]propoxy}benzamide]", "values": [{"measurement": "increase in the level of correct responses compared to the carrier", "setting": "[1]; Example A, FIG. 2, 0.3 mg/kg of base per os", "result": "more than 60%"}, {"measurement": "increase in the level of correct responses compared to the carrier", "setting": "[1]; Example A, FIG. 2, 1 mg/kg of base per os", "result": "more than 60%"}, {"measurement": "power of contextual memory (correct responses−interfering responses)", "setting": "[1]; Example B, FIG. 4, 0.3 mg/kg of base per os", "result": "+6%"}, {"measurement": "power of contextual memory (correct responses−interfering responses)", "setting": "[1]; Example B, FIG. 4, 1 mg/kg of base per os", "result": "+10%"}, {"measurement": "power of contextual memory (correct responses−interfering responses)", "setting": "[1]; Example C, FIG. 5, 0.3 mg/kg of base per os", "result": "−3", "unit": "%"}, {"measurement": "power of contextual memory (correct responses−interfering responses)", "setting": "[1]; Example C, FIG. 5, 1 mg/kg of base per os", "result": "+9%"}, {"measurement": "observable changes in Irwin's test", "setting": "[2]; 0.3 and 1 mg/kg of base per os", "result": "no observable changes"}]}, {"smiles": "CCN(C)C(=O)Oc1cccc([C@H](C)N(C)C)c1", "note": "[rivastigmine, reference compound]", "values": [{"measurement": "power of contextual memory (correct responses−interfering responses)", "setting": "[1]; Example B, FIG. 4, rivastigmine 0.1 mg/kg of base per os", "result": "−9", "unit": "%"}]}, {"smiles": "COc1ccc2c3c1O[C@H]1C[C@@H](O)C=C[C@@]31CCN(C)C2", "note": "[galantamine, reference compound]", "values": [{"measurement": "power of contextual memory (correct responses−interfering responses)", "setting": "[1]; Example C, FIG. 5, galantamine 0.3 mg/kg of base per os", "result": "−18", "unit": "%"}]}]}
